This assay relates to 697B B-cell line, NF-kB luciferase reporter luminescence. As to the kind of experiment: inhibitors of B-cell NF-kB luciferase signal – 697B cells, luminescence, selectivity assay for T-cell antigen receptor NF-kB inhibitors, dose response (AID 489033).

In general, IC50 refers to the point on the concentration scale where inhibition reaches its midpoint.

Calls of active or inactive are those of the source. The rule behind the calls is not given here. Some results are limits rather than exact numbers.

For `O=C(c1ccccc1)c1cc([N+](=O)[O-])ccc1N1CCOCC1`, the IC50 is > 80 µM (inactive).
As for `CCN(CC)c1ccc2nc3ccccc3[n+](CC)c2c1`, the IC50 is 45.8 µM (inactive).
With `Cc1ccc(N/C(N)=N/c2nc(CSc3nnc(C)s3)cc(=O)[nH]2)c(C)c1` the figure was > 80 µM (inactive).
As for `CCCCc1ccc(NC(=O)C(=O)NCCN2CCN(Cc3ccc([N+](=O)[O-])cc3)CC2)cc1`, the IC50 is > 80 µM (inactive).
With `COC(=O)c1nn(-c2ccc3c(c2)CCN3C(C)=O)cc1O` the figure was 5.08 µM; with `COc1cccc(-c2cc(C(=O)Nc3cc(C)n(Cc4ccc(Cl)cc4)n3)no2)c1`, > 80 µM (inactive); with `COC(=O)Nc1ccc(S(=O)(=O)N2c3ccccc3CCC2C)cc1` (stereo unspecified), > 80 µM (inactive).
Consider `O=C(Nc1ccncc1)c1ccc(Cl)c(S(=O)(=O)N2CCc3ccccc32)c1`, for which the IC50 was 61.9 µM (inactive).
With `COc1ccc(/C=N/NC(=O)COc2ccccc2-c2ccccc2)cc1` the figure was 76.2 µM (inactive).
With `COc1ccc(NS(=O)(=O)c2cc(-c3cnc(C4CC4)o3)ccc2C)cc1` the figure was > 80 µM (inactive); with `O=C1c2cccc3cc([N+](=O)[O-])cc(c23)C(=O)N1CCN1CCCC1`, 18.7 µM.
In the case of `Cc1ccc(N(C)S(=O)(=O)c2ccc(-c3cnc(C4CC4)o3)cc2)cc1`, the IC50 was 67.6 µM (inactive).
With `COC(=O)C(Cc1ccc(N(CCCl)CCCl)cc1)N=Cc1ccccc1O` (stereo unspecified) the figure was 0.31 µM; with `O=C1CC(c2cc(Br)ccc2F)c2cc3c(cc2N1)CCC3` (stereo unspecified), > 80 µM (inactive); with `COc1ccc(CC(=O)Nc2cccc(-c3nnc(-c4cccc(C)c4)o3)c2)cc1OC`, 8.4 µM.
For the compound `CCCOCCOC(=O)c1[nH]c2c(c1C)C(=O)CC(c1cc(OC)ccc1OC)C2` (stereo unspecified), the IC50 is > 80 µM (inactive).
Turning to `CC(=O)Nc1ccc(S(=O)(=O)N2c3ccccc3C(C)=CC2(C)C)cc1`, the IC50 was > 80 µM (inactive).
`CCC(C)C(=O)N[C@@H](c1ccccc1)[C@@H](O)C(=O)O[C@H]1C[C@@]2(O)[C@@H](OC(=O)c3ccccc3)C3[C@](C)(C(=O)[C@H](OC(C)=O)C(=C1C)C2(C)C)[C@@H](O)C[C@H]1OC[C@@]31OC(C)=O` (stereo partly specified): the IC50 was > 80 µM (inactive).
Then `C/C(=N\NC(=O)c1ccc(Cl)c(Cl)c1)c1ccccn1`, with 1.03 µM; and `COc1ccc(OC)c(COC(=O)c2cc([N+](=O)[O-])ccc2N2CCOCC2)c1`, with > 80 µM (inactive); and `Cc1ccc2c(c1)COc1c3ccc(C(=O)O)cc3nn1-2`, with 13.4 µM.
Then `CCn1cc(C(=O)NC2CCCc3c2cnn3-c2cccc(C)c2C)cn1` (stereo unspecified), with > 80 µM (inactive); and `O=C(NCCOc1ccccc1)c1cc([N+](=O)[O-])ccc1N1CCOCC1`, with > 80 µM (inactive).
Then `COc1ccccc1-c1nnc2sc(-c3ccc(N(C)C)cc3)nn12`, with > 80 µM (inactive); and `COc1ccc(Nc2nc3cc(C)ccc3cc2C#N)c(OC)c1`, with > 80 µM (inactive).
Regarding `CCOc1ccccc1C(=O)Nc1ccc2nc(N3CCN(c4ncccn4)CC3)cc(C)c2c1`, the 50% inhibitory concentration (IC50) was 4.69 µM.
Then `CCOc1ccccc1C1CC(=O)Nc2cc3c(cc21)OCCO3` (stereo unspecified), with > 80 µM (inactive).
For the compound `CCOC(=O)C(C)Oc1cccc2c(=O)n(CC(=O)NCc3ccc4c(c3)OCO4)ccc12` (stereo unspecified), the IC50 was > 80 µM (inactive).
With `Cc1ccc(-n2ncc3c(N4CCN(c5ccccc5)CC4)ncnc32)c(C)c1` the figure was 5.39 µM; with `O=C(Nc1ccc(Oc2cccnc2)nc1)c1ccc(C(F)(F)F)cc1`, 0.25 µM.
With `CCC(O)C1CCN(C(=O)c2cc(COc3ccc4ncccc4c3)on2)CC1` (stereo unspecified) the figure was 3.88 µM.
As for `CC(C)c1oc(=O)cc2c1[C@@H](O)[C@H]1OC(=O)[C@@]3(C)C[C@@H](O)[C@@H](O)[C@@]2(C)C13` (stereo partly specified), the IC50 is 7.2 µM.
On to `Cc1ccc(NC(=O)Nc2ccnc(-c3cccnc3)n2)cc1`, for which the IC50 was 1.05 µM.
With `COc1ccc(CS(=O)/C(Cl)=C(/Cl)C(=O)Nc2ccc(OC)nc2)cc1` (stereo unspecified), the IC50 was 1.57 µM.
With `O=C(N/N=C/c1c(O)ccc2ccccc12)c1ccc(Br)o1`, the IC50 is > 80 µM (inactive).
With `CSc1ccc(COC(=O)c2cc([N+](=O)[O-])ccc2N2CCOCC2)cc1`, the IC50 was 30 µM (inactive).
With `CCCSc1nnc(Sc2nnnn2-c2ccccc2)s1` the figure was 7 µM; with `CCOC(=O)N=Nc1c2ccccc2c2nc3no[nH]c3nc12`, 2.28 µM.
As to `CCN(CC)S(=O)(=O)c1cc(NC(=O)CNc2cccc(S(=O)(=O)N3CCCC3)c2)ccc1C`, the IC50 is > 80 µM (inactive).
Consider `COc1ccc(NC(=O)/C(Cl)=C(/Cl)S(=O)Cc2ccccc2Cl)cn1` (stereo unspecified), for which the IC50 is 1.27 µM.
Take `Cc1ccc(/C=C/c2ccc(N(C)C)cc2)[n+](C)c1`: the IC50 was > 80 µM (inactive).
Take `CCOC(=O)c1ccc2nc(Nc3nc4ccc(F)cc4s3)sc2c1`: the IC50 is 20.3 µM (inactive).
With `Cc1ccc(Nc2cc(C)nn2-c2nc(C)cc(=O)[nH]2)cc1` the figure was 0.95 µM.
With `COc1cccc(N2CCN(C(=O)c3cn(Cc4ccccc4)nc3-c3cccnc3)CC2)c1` the figure was > 80 µM (inactive); with `O=C(N/N=C\c1c(O)ccc2ccccc12)c1cncc(Br)c1`, > 80 µM (inactive).
For the compound `COc1ccc(C(=O)N(C)Cc2cnn(Cc3ccccc3)c2)cc1S(=O)(=O)N1CCOCC1`, the IC50 was > 80 µM (inactive).
For the compound `Cc1ccc(O)c(NC(=O)c2cc(-c3ccccc3)on2)c1`, the IC50 is > 80 µM (inactive).
With `CCN1/C(=C/c2ccc3cc(C)ccc3[n+]2CC)Sc2ccc3sccc3c21` the figure was 9.39 µM.
With `Cc1ccc(-c2cc(-c3ccc(C)cc3)[n+](-c3ccccc3)c(-c3ccc(C)cc3)c2)cc1` the figure was 0.7 µM; with `CC1=Nc2ccccc2/C1=C\c1sc(Nc2ccc(C)cc2)nc1O`, 61 µM (inactive); with `COc1cc(C(=O)N2CCN(c3cc(Cl)ccc3Cl)CC2)cc(OC)c1OC`, > 80 µM (inactive).
Take `COc1ccc(/C=N\NC(=O)c2ccccc2F)cc1COc1ccc(F)cc1F`: the IC50 is > 80 µM (inactive).
Turning to `CCCCC(=O)NC(c1ccc(Cl)cc1)c1ccc2cccnc2c1O` (stereo unspecified), the IC50 is > 80 µM (inactive).
On to `O=C(CSc1nnc(Cn2nnc3ccccc32)o1)N(Cc1ccc(F)cc1)c1ccccc1`, for which the concentration for half-maximal inhibition (IC50) was 12.7 µM.
With `CCS(=O)(=O)c1ncc(Cl)c(C(=O)Nc2ccc(S(=O)(=O)N(C)c3ccccc3)cc2)n1`, the IC50 is 1.42 µM.
With `O=C(Nc1ccc(CSc2ccccc2)cc1)c1ccc(CN2CCOCC2)cc1` the figure was > 80 µM (inactive); with `COc1cc(NS(C)(=O)=O)ccc1Nc1c2ccccc2nc2ccccc12`, 15.8 µM.
Then `Cc1cc(NC(=O)COC(=O)c2ccc(S(=O)(=O)N3CCCc4ccccc43)cc2)no1`, with > 80 µM (inactive); and `CC1(C)C[C@H]2C=C(C=O)[C@]3(C=O)C[C@]3(C)[C@H]2C1`, with 7.97 µM.
Then `CCOC(=O)COc1cccc2c(=O)n(CC(=O)NCc3ccc(F)cc3)ccc12`, with > 80 µM (inactive).
As to `COc1cccc(N2CCN(C(=O)c3ccc(CS(=O)c4ccccc4Cl)o3)CC2)c1` (stereo unspecified), the IC50 is 69.8 µM (inactive).
Then `CCOc1ccc(NC(=O)c2cc3c(C)nc4ccccc4c3o2)cc1`, with > 80 µM (inactive); and `CCOc1ccccc1NC(=O)Cn1nnc(C(=O)NCc2cccs2)c1N`, with > 80 µM (inactive).
Turning to `CCOC(=O)Nc1nc(-c2ccccc2)c(C(=O)c2ccccc2)s1`, the IC50 was > 80 µM (inactive).
Then `COc1ccc(-[n+]2c(-c3ccccc3)cc(-c3ccc(C)cc3)cc2-c2ccccc2)cc1`, with 8.23 µM; and `CCOC(=O)c1c(C)[nH]c(C(=O)N/N=C/c2ccc(Br)cc2)c1C`, with > 80 µM (inactive); and `Cc1cc(-n2c(C)cc(C(=O)CSc3ncnc4ccccc34)c2C)no1`, with 67 µM (inactive).
Regarding `Cc1cccc(N2CCN(C(=O)c3c(-c4ccccc4)noc3C)CC2)c1C`, the IC50 was > 80 µM (inactive).
Then `O=C(Nc1cccc(C(F)(F)F)c1)c1sc(Cl)nc1C(F)(F)F`, with 1.37 µM; and `CCC1CCCCN1C(=O)c1cc(COc2ccc3ncccc3c2)on1` (stereo unspecified), with > 80 µM (inactive); and `O=C(COc1ccc(C(=O)c2ccccc2)cc1)NCc1ccc(F)cc1`, with > 80 µM (inactive).
With `CCCCCCCCCCn1ccc(=N)cc1` the figure was 11.7 µM; with `COc1ccc(Cl)cc1NC(=O)CN(C)CC(=O)Nc1ccccc1N1CCOCC1`, > 80 µM (inactive); with `CC(=O)Nc1ccc(S(=O)(=O)N2CCCc3ccccc32)cc1`, > 80 µM (inactive).
For the compound `CC1CC(C)CN(S(=O)(=O)c2ccc(NC(=O)c3ccc(=O)[nH]c3)cc2)C1` (stereo unspecified), the IC50 is > 80 µM (inactive).
With `C[C@]12CCC3C(CCC4=CC(O)CC[C@@]43/C=N/O)C1(O)CCC2C1=CC(=O)OC1` (stereo partly specified) the figure was 2.58 µM.
With `COc1ccc(CCN2C(=O)C3C4C=CC(C3C2=O)C2C(=O)N(CCc3ccc(OC)c(OC)c3)C(=O)C42)cc1OC` (stereo unspecified) the figure was > 80 µM (inactive).
With `Cc1noc(C)c1COc1ccc(C(=O)NNC(=O)c2ccccc2F)cc1`, the IC50 is > 80 µM (inactive).
With `Cn1c(SC2=CS(=O)(=O)c3ccccc32)nc2ccccc21`, the IC50 is 3.54 µM.
Then `CN[C@H]1CCc2cc(OC)c(OC)c(OC)c2-c2ccc(OC)c(=O)cc21`, with > 80 µM (inactive); and `COc1ccc2nc(C)cc(N/N=C/c3ccc(F)cc3)c2c1`, with 2.08 µM; and `CCCC(=O)Nc1nc2ccc(S(=O)(=O)N3CCCCC3)cc2s1`, with > 80 µM (inactive).
With `COC(=O)c1ccc2nc(Nc3nc4c(F)cc(F)cc4s3)sc2c1` the figure was 24.6 µM (inactive); with `COc1cc2c(c(OC)c1OC)-c1ccc(OC)c(=O)cc1[C@@H](NC(C)=O)CC2`, > 80 µM (inactive); with `CCc1ccc2nc(SCC(=O)Nc3ccccc3N3CCOCC3)c(C#N)cc2c1`, > 80 µM (inactive).
With `CCCCCCCCCn1c2c(c(=N)c3c1CCC3)CCCC2` the figure was 0.33 µM.
